Legend:
Format in all cases: in vivo
insulin secretion = test: Effect on insulin secretion in mice (serum insulin, radioimmunoassay); settings: healthy C57/BL/6J mice, 2 μg injected into abdominal cavity, blood at 0, 5, 15, 30, 60 min, FIG. 9
Description: Healthy C57/BL/6J mice were purchased from the Shanghai Laboratory Animal Center of Chinese Academy of Sciences. The mice were divided into three groups with 6 mice in each group. The placebo group of mice received 200 μl of saline injected into their abdominal cavity, while the testing group received 2 μg of GLP-1 (7-36) and the positive control group received 2 μg of GLP-1 (7-36)NH2 (BACHEM). The moment when the animals received the injection was set as time zero. 50 μl of blood were drawn from the veins at angulus oculi with a graduated capillary which had been rinsed with heparin and then dried. The blood samples were subsequently drawn at 5, 15, 30 and 60 minutes. The blood samples were immediately mixed with 50 μl of saline in a micro-centrifuge tube. The mixture was centrifuged at 3000 rpm to remove erythrocytes. The serum was used to measure insulin concentration.
The radioimmunoassay kit (Shanghai Institute of Biological Products, Chinese Ministry of Health) for insulin was used to measure the effect of GLP-1 (7-36) on insulin secretion. […] This observation indicates the administration of either GLP-1 (7-36) or GLP-1 (7-36)NH2 enhances the secretion of insulin in mice.

blood glucose [1] = test: Effect on blood glucose level in glucose-loaded C57/BL/6J mice; settings: C57/BL/6J mice fasted overnight, 200 μl of 40% glucose plus 2 μg peptide into abdominal cavity, 0, 30, 60, 120 min, FIG. 11
Description: Healthy C57/BL/6J mice were purchased from Shanghai Laboratory Animal Center of Chinese Academy of Sciences. The mice were divided into four groups with 6 mice in each group. Mice fasted overnight were injected by abdominal cavity. The placebo group were injected with 200 μl of 40% glucose solution, the testing group were injected with 200 μl of 40% glucose solution plus 2 μg of GLP-1 (7-36), the positive control group(I) were injected with 200 μl of 40% glucose solution plus 2 μg of GLP-1 (7-36)NH2 (Sigma), and the positive control group(II) were injected with 200 μl of 40% glucose solution plus 2 μg of GLP-1 (7-37) (Sigma). The moment when the animals received the injection was set as time zero. After the injection, 20 μl of blood sample were immediately drawn from optic sinus of each mouse with a heparin-treated capillary. The blood samples were immediately mixed with 300 μl of saline in a micro-centrifuge tube. The mixture was centrifuged at 3000 rpm to remove erythrocytes. The serum was used to measure serum glucose concentration. This procedure was repeated at the 30th, 60th and 120th minutes.
The serum blood glucose concentration was measured by a commercial kit (Shanghai Institute of Biological Products, Chinese Ministry of Health).

blood glucose [2] = test: Comparison of reducing blood glucose effect in Kun Ming mice; settings: fasted 4 hours, glucose 2 g/kg intraperitoneally, 50 ng/Kg peptide, 30 minutes; for Rate (reduction of blood glucose): versus control
Description: Kun Ming mice (40 in total, male, 23 g body weight/mouse) were divided into 4 groups. After fasting for 4 hours, each mouse was injected with glucose (2 g/kg body weight) intraperitoneally. Then mice in the testing group were rejected with 50 ng/Kg of GLP-1 (7-36), GLP-1 (7-36)NH2 (BACHEM) and GLP-1 (7-37)COOH (BACHEM) respectively, while mice in the control group were rejected with 0.9% NaCl saline. Blood sample was collected at the zero time and 30 minutes later for the analysis.

C-peptide secretion = test: Effect on C-peptide secretion in mice (serum C-peptide, radioimmunoassay); settings: C57/BL/6J mice, 10 μg injected into abdominal cavity, FIG. 10
Description: As described in Example 14, C57/BL/6J mice were divided into two groups with the placebo group receiving 200 μl of saline injected into abdominal cavity and the testing group receiving 10 μg of GLP-1 (7-36). A radioimmunoassay kit (Shanghai Institute of Biological Products, Chinese Ministry of Health) for C-peptide was used to measure the effect of GLP-1 (7-36) on C-peptide secretion.

GLP-1 (7-36)NH2: natural GLP-1 form of 30 amino acid residues with C-terminal amidated; positive control from BACHEM or Sigma
serum insulin concentration (insulin secretion): significant increase | serum blood glucose concentration (blood glucose [1]): no obvious rise from the normal level | Blood Glucose (blood glucose [2]): 8.69 mmol/L | Rate (reduction of blood glucose) (blood glucose [2]): 36.8%

GLP-1 (7-37): natural GLP-1 form of 31 amino acid residues; positive control from Sigma or BACHEM (HAEGTFTSDVSSYLEGQAAKEFIAWLVKGRG; homo sapiens)
serum blood glucose concentration (blood glucose [1]): no obvious rise from the normal level | Blood Glucose (blood glucose [2]): 6.77 mmol/L | Rate (reduction of blood glucose) (blood glucose [2]): 50.7%

His-Ala-Glu-Gly-Thr-Phe-Thr-Ser-Asp-Val-Ser-Ser-Tyr-Leu-Glu-Gly-Gln-Ala-Ala-Lys-Glu-Phe-Ile-Ala-Trp-Leu-Val-Lys-Gly-Arg−OH (HAEGTFTSDVSSYLEGQAAKEFIAWLVKGR; homo sapiens) [GLP-1 (7-36)]
serum insulin concentration (insulin secretion): significant increase | serum blood glucose concentration (blood glucose [1]): no obvious rise from the normal level | Blood Glucose (blood glucose [2]): 6.51 mmol/L | Rate (reduction of blood glucose) (blood glucose [2]): 50.4% | serum C-peptide concentration (C-peptide secretion): significant increase
